In PMC3271064, “Discrete Cyclic di-GMP-Dependent Control of Bacterial Predation versus Axenic Growth in Bdellovibrio bacteriovorus” (PLoS Pathogens, 2012):

Assays:
DgcA (Bd0367) = target: T1, DgcA (Bd0367) (Bdellovibrio bacteriovorus, UniProt Q6MQU2); assay: diguanylyl cyclase assay, HPLC; type: biochemical; details: MBP-DgcA
T1 construct: gene pleD; MBP fusion, expressed in and purified from E. coli; MBP kept
T1 sequence (Q6MQU2 1-343): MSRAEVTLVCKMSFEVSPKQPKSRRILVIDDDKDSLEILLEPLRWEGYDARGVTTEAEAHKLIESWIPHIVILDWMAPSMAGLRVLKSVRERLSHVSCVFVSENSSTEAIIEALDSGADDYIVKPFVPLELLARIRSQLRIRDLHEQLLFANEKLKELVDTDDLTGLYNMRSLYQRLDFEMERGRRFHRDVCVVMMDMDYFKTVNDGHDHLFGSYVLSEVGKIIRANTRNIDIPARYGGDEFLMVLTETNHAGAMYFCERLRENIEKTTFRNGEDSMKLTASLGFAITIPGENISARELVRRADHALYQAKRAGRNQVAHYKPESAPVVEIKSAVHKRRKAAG

DgcB (Bd0742) = target: T2, DgcB (Bd0742) (Bdellovibrio bacteriovorus, UniProt Q6MPU8); assay: diguanylyl cyclase assay, HPLC; type: biochemical; details: MBP-DgcB; activity only after about 30 min incubation at 37°C
T2 construct: MBP fusion, expressed in and purified from E. coli; MBP kept; copurifies with c-di-GMP
T2 sequence (Q6MPU8 1-320): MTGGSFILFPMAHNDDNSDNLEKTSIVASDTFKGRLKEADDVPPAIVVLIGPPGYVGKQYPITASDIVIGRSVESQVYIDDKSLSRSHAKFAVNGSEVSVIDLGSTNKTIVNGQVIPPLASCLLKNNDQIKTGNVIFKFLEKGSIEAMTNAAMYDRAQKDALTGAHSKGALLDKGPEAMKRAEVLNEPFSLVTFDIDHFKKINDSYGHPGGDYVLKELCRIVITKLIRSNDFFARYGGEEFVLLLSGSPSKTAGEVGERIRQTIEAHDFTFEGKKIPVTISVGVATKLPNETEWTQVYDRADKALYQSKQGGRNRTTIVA

DgcC (Bd1434) = target: T3, DgcC (Bd1434) (Bdellovibrio bacteriovorus, UniProt Q6MN29); assay: diguanylyl cyclase assay, HPLC; type: biochemical; details: MBP-DgcC
T3 construct: MBP fusion, expressed in and purified from E. coli; MBP kept; natural GGEEF motif
T3 sequence (Q6MN29 1-408): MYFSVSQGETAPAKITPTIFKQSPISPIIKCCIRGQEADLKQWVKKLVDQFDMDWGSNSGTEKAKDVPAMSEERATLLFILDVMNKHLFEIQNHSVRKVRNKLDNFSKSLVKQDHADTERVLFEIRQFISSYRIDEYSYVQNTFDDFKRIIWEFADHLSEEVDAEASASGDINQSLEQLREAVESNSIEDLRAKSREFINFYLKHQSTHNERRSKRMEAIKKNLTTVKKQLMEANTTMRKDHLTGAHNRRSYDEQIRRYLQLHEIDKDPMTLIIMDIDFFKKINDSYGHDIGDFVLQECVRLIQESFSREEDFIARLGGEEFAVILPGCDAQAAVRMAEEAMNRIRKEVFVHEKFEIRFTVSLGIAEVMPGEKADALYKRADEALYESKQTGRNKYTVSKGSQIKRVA

CdgA (Bd3125) = target: T4, CdgA (Bd3125) (Bdellovibrio bacteriovorus, UniProt Q6MIM9); assay: equilibrium dialysis; type: binding; details: read-out: apparent Kd
T4 construct: MBP fusion, expressed in and purified from E. coli; MBP kept; degenerate GVNEF motif is natural
T4 sequence (Q6MIM9 1-496): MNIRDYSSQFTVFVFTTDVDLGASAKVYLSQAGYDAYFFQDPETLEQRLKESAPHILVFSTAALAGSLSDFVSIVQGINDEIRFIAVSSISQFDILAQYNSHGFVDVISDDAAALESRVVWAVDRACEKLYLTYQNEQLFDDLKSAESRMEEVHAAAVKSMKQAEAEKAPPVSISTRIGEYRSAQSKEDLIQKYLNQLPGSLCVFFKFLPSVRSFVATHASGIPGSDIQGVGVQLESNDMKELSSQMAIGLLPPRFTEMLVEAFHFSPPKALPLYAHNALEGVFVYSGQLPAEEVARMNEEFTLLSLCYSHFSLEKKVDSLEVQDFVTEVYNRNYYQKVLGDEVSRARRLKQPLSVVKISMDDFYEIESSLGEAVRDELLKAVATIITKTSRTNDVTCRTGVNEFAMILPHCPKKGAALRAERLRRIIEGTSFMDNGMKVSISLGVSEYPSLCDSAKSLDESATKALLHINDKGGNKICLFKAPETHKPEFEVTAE

Row | Kd (CdgA (Bd3125)) [µM] | Structure (SMILES) | diguanylyl cyclase assay, HPLC (DgcA (Bd0367)) | diguanylyl cyclase assay, HPLC (DgcB (Bd0742)) | diguanylyl cyclase assay, HPLC (DgcC (Bd1434)) | diguanylyl cyclase assay, HPLC (DgcA (Bd0367); from GTP) | diguanylyl cyclase assay, HPLC (DgcC (Bd1434); from GTP)
1 |  | Nc1nc2c(ncn2[C@@H]2O[C@H](COP(=O)(O)OP(=O)(O)OP(=O)(O)O)[C@@H](O)[C@H]2O)c(=O)[nH]1 [GTP] | DgcA, DgcB and DgcC proved to function as diguanylyl cyclases (Figure 1A–C) | DgcA, DgcB and DgcC proved to function as diguanylyl cyclases (Figure 1A–C) | DgcA, DgcB and DgcC proved to function as diguanylyl cyclases (Figure 1A–C) |  | 
2 | ~2 | Nc1nc2c(ncn2[C@@H]2O[C@@H]3COP(=O)(O)O[C@H]4[C@@H](O)[C@H](n5cnc6c(=O)[nH]c(N)nc65)O[C@@H]4COP(=O)(O)O[C@H]3[C@H]2O)c(=O)[nH]1 [c-di-GMP] |  |  |  | HPLC profiles show peaks of c-di-GMP (product) and GTP (substrate) | HPLC profiles show peaks of c-di-GMP (product) and GTP (substrate)
